Broadly, the half-life is how long it takes for the measured level to halve. The term Papp A→B denotes the apparent permeability from the apical to the basolateral side of a cell layer. A high value points to fast passage. The term AUC(0-t) denotes exposure summed from dosing to a finite time, without extrapolation to infinity. What is called Cmax is the maximum level reached in the sampled fluid or tissue. A word on the AUC(0-inf): it is the area under the concentration-time curve extrapolated to infinity. A higher AUC(0-inf) goes with more exposure. One may read the Tmax as the time at which the peak concentration occurs.

Here are results for 3 compounds from patent US20260116874A1, “HETEROAROMATIC INDOLESULFONAMIDES” (SEED Therapeutics, Inc., priority 2023, published 2026).

Each structure is given as a SMILES string. Where two headings read alike, the source gives them in different places.

Data set [1] is described as follows: Liver microsomes stability, mouse. Format: in vitro ADME. How it is done:
A 100 μM test compound solution and PC solution (verapamil) was prepared by adding 2 μL of 10 mM stock solution in DMSO to 198 μL of 50% acetonitrile/50% water.
Two separate experiments were performed as follows:
a) With Cofactors (NADPH): 25 μL of 10 mM NADPH was added to the incubations. The final concentrations of microsomes and NADPH were 0.5 mg/mL and 1 mM, respectively.
b) Without Cofactors (NADPH): 25 μL of 100 mM Phosphate buffer was added to the incubations. The final concentration of microsomes was 0.5 mg/mL. The mixture was pre-warmed at 37° C. for 10 minutes.
The reaction was started with the addition of 2.5 μL of 100 µM control compound or test compound solutions. Verapamil was used as positive control in this study. The final concentration of test compound or control compound was 1 μM. The incubation solution was incubated in a water bath at 37° C.
Aliquots of 30 μL were taken from the reaction solution at 0.5, 15, 30, 45 and 60 minutes. The reaction was stopped by the addition of 5 volumes of cold acetonitrile with IS (100 nM alprazolam, 200 nM caffeine and 100 nM tolbutamide).
Samples were then centrifuged at 3,220 g for 40 minutes. An aliquot of 100 μL of the supernatant was mixed with 100 μL of ultra-pure H2O and then used for LC-MS/MS analysis.
(§1) Single dose PK parameters were also determined for Compound 143, a deuterated derivative of Compound 1, according to the methods described herein. […] Metabolic stability was assessed by measuring the half-life of the test compounds in human and mouse liver microsomes.
(In general: Liver microsomes are vesicles of endoplasmic reticulum, rich in cytochrome P450 enzymes.)

Data set [2] has as its target T1, MDR1 (Homo sapiens, UniProt P08183).
T1 construct: expressed in transfected cells; host or cells: MDCK-MDR1 cells (MDCK host)
The experiment in a line: MDCK-MDR1 permeability / efflux assay. The settings on record: dog; for Papp A→B at 2 h, 1 µM: MDCK-MDR1, pH 7.4, MDCK cells, apical to basolateral. Format: in vitro ADME, canine. How it is done:
To prepare transport buffer (HBSS with 10 mM HEPES, pH 7.4), 2.383 g of HEPES and 0.35 g sodium hydrogen carbonate was accurately weighed and added into 900 mL of pure water, then sonicated to dissolve the content. Into the solution was transferred 100 mL of 10×HBSS, and the solution was placed on a stirrer. The pH of the solution was slowly adjusted with sodium hydroxide to 7.4, followed with filtering.
MDCK-MDR1 plate(s) were removed from the incubator. The monolayer was washed the monolayer twice with pre-warmed HBSS (10 mM HEPES, pH 7.4). Then the plate(s) were incubated at 37° C. for 30 minutes.
Propranolol was used as the high permeability marker. Digoxin was used as the substrate of […] (MDR1). Stock solutions of test compound(s) and digoxin in DMSO at 0.2 mM were prepared and diluted with HBSS (10 mM HEPES, pH 7.4) to get 1 μM working solutions. Stock solutions of propranolol in DMSO at 1 mM was prepared and diluted with HBSS (10 mM HEPES, pH 7.4) to get 5 μM working solutions.
To determine the rate of drug transport in the apical to basolateral direction, 125 μL of the working solution was added to the Transwell insert (apical compartment), and a 50 μL sample was immediately transferred from the apical compartment to 200 μL quenching solvents (acetonitrile with 100 nM alprazolam, 200 nM caffeine, 200 nM labetalol and 100 nM tolbutamide) in a new 96-well plate as the initial donor sample (A-B). The plate was shaken at 1000 rpm for 10 minutes. The wells in the receiver plate (basolateral compartment) were filled with 235 μL of transport buffer. All incubations were performed in duplicate.
To determine the rate of drug transport in the basolateral to apical direction, 285 μL of the 1 μM working solution was added to the receiver plate wells (basolateral compartment), and a 50 μL sample was immediately transferred from the basolateral compartment to 200 μL quenching solvents (acetonitrile with 100 nM alprazolam, 200 nM caffeine, 200 nM labetalol and 100 nM tolbutamide) in a new 96-well plate as the initial donor sample (B-A). Shake the plate at 1000 rpm 10 minutes. The Transwell insert (apical compartment) was filled with 75 μL of transport buffer. The apical to basolateral direction and the basolateral to apical direction were done at the same time.
The Transwell insert plate was inserted into the basolateral plate, transferred into the incubator and incubated at 37° C. for 2 hours.
At the end of the incubation, 50 μL samples from donor sides (apical compartment for Ap→Bl flux, and basolateral compartment for Bl→Ap flux) and receiver sides (basolateral compartment for Ap→Bl flux, and apical compartment for Bl→Ap flux) were transferred to wells of a new 96-well plate, followed by the addition of 4 volume of quenching solvents (acetonitrile with 100 nM alprazolam, 200 nM caffeine, 200 nM labetalol and 100 nM tolbutamide). Samples were Vortexed for 10 minutes and then centrifuged at 3,220 g for 40 minutes. An aliquot of 100 μL of the supernatant was mixed with an appropriate volume of ultra-pure water before LC-MS/MS analysis.
To determine the Lucifer yellow leakage after 2-hour transport period, Lucifer yellow working solutions were prepared by diluting the stock solution with HBSS (10 mM HEPES, pH 7.4) to reach the final concentration of 100 μM. To the apical compartment, 100 μL of the Lucifer yellow solution were added. The plate(s) were incubated at 37° C. for 30 minutes and 80 μL was directly removed from the apical and basolateral wells and transferred to new 96 wells plates. Lucifer yellow fluorescence (to monitor monolayer integrity) was measured in a fluorescence plate reader at 485 nm excitation and 530 nm emission.

A short description of data set [3]: Single dose plasma pharmacokinetics after IV and PO administration. It counts as in vivo, female BALB/c mice. The settings on record: for F: PO 20 mg/kg vs IV 1 mg/kg; for F / AUC(0-t) / Cmax / AUC(0-inf) / C0 / clearance / half-life / Vd / Tmax: female BALB/c mice; for AUC(0-t) / Cmax: female, BALB/c; for AUC(0-t) / Cmax / AUC(0-inf) / C0 / clearance / half-life / Vd / Tmax: mouse, plasma; for Vd: read-out: Vss. The method, then:
Single dose PK parameters in plasma were determined following intravenous administration of compound 1 and comparative compound E7820 at 1 mg/kg by using the formulation of 10% DMSO/30% PEG400/60% Saline. The plasma samples were collected at the following time points: 0.083, 0.25, 0.5, 1, 2, 4, 8 and 24 hrs post-dose. The concentrations in plasma were determined.
Single dose PK parameters in plasma were determined following oral gavage of Compound 1 and comparative compound E7820 at 20 mg/kg by using the formulation of 0.5% MC (400 cps) and 0.1% Tween80 in water. The plasma samples were collected at the following time points: 0.25, 0.5, 1, 2, 4, 8 and 24 hrs post dose.
as §1

[4] abbreviates: 1 μM, Table 3, read-out: Metabolic Stability Half-life, mouse.
Setting [5] is: Table 6, read-out: Metabolic Stability Half-life, Mouse.
Where [6] appears, read: MDCK-MDR1, pH 7.4, MDCK cells, Table 6, read-out: MDCK Permeability Efflux Ratio.
[7] abbreviates: MDCK-MDR1, pH 7.4, MDCK-MDR1, 1 μM, 2 hours, Table 3, read-out: MDCK-MDR1 Efflux ratio.
[8] abbreviates: iv, 1 mg/kg, IV 1 mg/kg, read-out: AUC(0-t).
Where [9] appears, read: po, 20 mg/kg, AUC(0-8 hr), oral administration, Table 7.
The mark [10] stands for this setting: po, 20 mg/kg, PO 20 mg/kg, read-out: AUC(0-t).
The mark [11] stands for this setting: po, 20 mg/kg, oral administration, Table 7.

T1 sequence (P08183 whole entry): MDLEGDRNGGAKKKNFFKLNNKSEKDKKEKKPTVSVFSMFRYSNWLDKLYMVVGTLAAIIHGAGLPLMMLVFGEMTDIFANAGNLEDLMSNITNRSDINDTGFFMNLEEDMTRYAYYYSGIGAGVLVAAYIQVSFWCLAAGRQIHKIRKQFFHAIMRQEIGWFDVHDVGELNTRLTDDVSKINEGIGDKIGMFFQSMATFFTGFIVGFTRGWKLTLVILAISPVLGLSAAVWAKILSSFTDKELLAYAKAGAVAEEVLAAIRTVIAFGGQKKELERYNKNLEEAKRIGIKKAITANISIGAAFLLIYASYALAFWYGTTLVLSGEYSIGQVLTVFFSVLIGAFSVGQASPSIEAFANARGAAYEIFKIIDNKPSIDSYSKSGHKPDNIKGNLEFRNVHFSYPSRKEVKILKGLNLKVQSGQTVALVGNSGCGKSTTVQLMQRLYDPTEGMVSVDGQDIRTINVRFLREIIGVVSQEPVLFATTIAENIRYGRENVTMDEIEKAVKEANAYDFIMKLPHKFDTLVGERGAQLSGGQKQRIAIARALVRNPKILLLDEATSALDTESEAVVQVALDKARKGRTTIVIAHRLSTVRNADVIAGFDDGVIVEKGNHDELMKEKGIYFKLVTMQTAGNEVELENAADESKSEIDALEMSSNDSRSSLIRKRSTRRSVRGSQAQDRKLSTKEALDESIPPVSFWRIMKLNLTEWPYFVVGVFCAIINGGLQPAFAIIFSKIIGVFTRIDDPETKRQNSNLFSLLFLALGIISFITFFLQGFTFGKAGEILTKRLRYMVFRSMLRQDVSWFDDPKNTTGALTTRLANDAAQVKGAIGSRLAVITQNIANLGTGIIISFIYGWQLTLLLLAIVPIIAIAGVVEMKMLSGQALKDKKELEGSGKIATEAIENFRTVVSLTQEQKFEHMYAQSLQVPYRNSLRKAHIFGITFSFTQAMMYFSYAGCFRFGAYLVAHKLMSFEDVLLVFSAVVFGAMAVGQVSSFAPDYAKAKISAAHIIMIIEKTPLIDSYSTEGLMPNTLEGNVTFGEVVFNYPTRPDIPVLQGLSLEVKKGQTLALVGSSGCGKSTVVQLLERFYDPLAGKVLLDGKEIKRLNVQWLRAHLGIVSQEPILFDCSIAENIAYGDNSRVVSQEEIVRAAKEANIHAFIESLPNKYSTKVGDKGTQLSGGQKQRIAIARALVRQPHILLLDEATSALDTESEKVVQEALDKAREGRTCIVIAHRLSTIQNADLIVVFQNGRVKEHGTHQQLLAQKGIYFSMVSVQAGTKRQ

As for `Cc1ncc(S(=O)(=O)Nc2ccc(C)c3c(C#N)c[nH]c23)s1` [Compound 1, N-(3-cyano-4-methyl-1H-indol-7-yl)-2-methyl-thiazole-5-sulfonamide], the half-life at 1 µM in data set [1] (setting [4]) came to 47.1 min; in data set [1] (setting [5]), 47 min. The figures for the efflux ratio at 2 h, 1 µM in data set [2] (setting [6]) and in data set [2] (setting [7]) were 26 and 25.5, respectively. In addition, in data set [2] (Table 6), the apical-to-basolateral permeability (Papp A→B) at 2 h, 1 µM came out at 1.9 ×10⁻⁶ cm/s. Moreover, the F in data set [3] stood at 407%. The results for the AUC(0-t) in data set [3] (setting [8]), in data set [3] (setting [9]) and in data set [3] (setting [10]) were 1860 ng·h/mL, 62300 ng·h/mL and 151000 ng·h/mL, respectively. For the same compound, the highest concentration (Cmax) in data set [3] (po, 20 mg/kg, PO 20 mg/kg) was determined as 25900 ng/mL; in data set [3] (setting [11]), 9850 ng/mL. Besides, the AUC(0-inf) in data set [3] (IV 1 mg/kg) stood at 1860 ng·h/mL; in data set [3] (PO 20 mg/kg) it was 190000 ng·h/mL. Also, the C0 in data set [3] (IV 1 mg/kg) worked out at 6060 ng/mL. This compound also gave a clearance in data set [3] (IV 1 mg/kg) of 9.4 mL/min/kg. The half-life in data set [3] (IV 1 mg/kg) was 40.2 min; in data set [3] (PO 20 mg/kg) it was 151 min. Besides, the Vd in data set [3] (IV 1 mg/kg) is 0.201 L/kg. For the same compound, the Tmax in data set [3] (PO 20 mg/kg) stood at 140 min. In addition, the “increase in plasma AUC compared to E7820” value in data set [3] (oral administration, compared to control compound E7820) is on record as “greater than 2 fold”.

In the case of `[2H]C([2H])([2H])c1ncc(S(=O)(=O)Nc2ccc(C)c3c(C#N)c[nH]c23)s1` [Compound 143, N-(3-cyano-4-methyl-1H-indol-7-yl)-2-(methyl-d3)thiazole-5-sulfonamide], the half-life at 1 µM in data set [1] (setting [5]) was found to be 67 min. The efflux ratio at 2 h, 1 µM in data set [2] (setting [6]) turned out to be 12. In data set [2] (Table 6), the Papp A→B at 2 h, 1 µM is 2.9 ×10⁻⁶ cm/s. In addition, the AUC(0-t) in data set [3] (setting [9]) came to 107000 ng·h/mL. In addition, the Cmax in data set [3] (setting [11]) was 19300 ng/mL. Also, in data set [3] (oral administration, compared to Compound 1, in words), the “plasma AUC compared to Compound 1” value was “increase”.

For `Cc1ccc(NS(=O)(=O)c2cccc(C#N)c2)c2[nH]cc(C#N)c12` [Compound E7820, E7820, reference compound], in data set [1] (setting [4]), the half-life at 1 µM came to 28.7 min. Further, in data set [1] (setting [5]), the half-life at 1 µM is 29 min. In data set [2] (setting [6]), the efflux ratio at 2 h, 1 µM was found to be 30. Besides, the efflux ratio at 2 h, 1 µM in data set [2] (setting [7]) turned out to be 29.9. Further, in data set [2] (Table 6), the Papp A→B at 2 h, 1 µM was determined as 1.1 ×10⁻⁶ cm/s. In data set [3], this compound had an F of 202%. Moreover, in data set [3] (setting [8]), the AUC(0-t) was 1640 ng·h/mL. In addition, in data set [3] (po, 20 mg/kg, PO 20 mg/kg), the highest level (Cmax) was 11500 ng/mL. The AUC(0-t) in data set [3] (setting [10]) was determined as 66200 ng·h/mL. In data set [3] (IV 1 mg/kg), this compound gave an AUC(0-inf) of 1650 ng·h/mL, a C0 of 3150 ng/mL, a clearance of 10.2 mL/min/kg and a half-life of 32.5 min. In data set [3] (IV 1 mg/kg), the Vd came to 0.393 L/kg. For the same compound, in data set [3] (PO 20 mg/kg), the Tmax stood at 160 min.
